Here are results for 20 compounds from patent publication US6699868B2, “Pyridazinyl phenyl hydrazones useful against congestive heart failure” (Orion Corporation, priority 2000, dated 2004).

Where two headings read alike, the source gives them in different places.

The test system of one data set is skinned cardiac fiber. Put plainly: Calcium sensitizing effect in skinned cardiac fiber. It is filed as cell-based, guinea-pig. The conditions noted are these: test compound 0.1-10 μM added cumulatively, calcium (pCa 6.0 or 6.2)-induced tension, room temperature; for Emax: Cavia porcellus, maximum effect, read-out: Change in force/ % change from control (maximum calcium sensitizing effect in skinned fiber). The method, then:
Experiment 1. Calcium sensitizing effect in skinned cardiac fiber
The heart of a guinea-pig was excised and perfused with ice-cold saponin (125 mg/l) skinning solution consisting of (mM): K^+-acetate 74.7. EGTA-Na2 10, MgSO4 5.4, ATP-Na2 4, MOPS 20, pH 7.0 (by 1 M KOH). Left ventricular papillary muscle was dissected and sonicated at 10 Watt for 60 s. The distance between ultrasound probe and the papillary muscle was 10 mm. The fibres (<200 μm in diameter) were dissected from the surface of sonicated papillary muscles in the same solution.
The fibre was glued between platinum wires, one attached to an isometric force transducer (type AE-801,SensoNor, Horten, Norway) and another to a micro manipulator. The fibre was relaxed in a solution consisting of (mM): EGTA-Na2 10, MgSO4 5.4, ATP-Na2 4, MOPS 20. The pH of the solution was adjusted to 7.0 and ionic strength to 0.16 M by the addition of KOH and K^+-acetate. Creatine kinase and creatine phosphate were not added as an ATP generating system because the developed tension was well sustained for the time required for experiment. The calculations for ionic strength and for free calcium (pCa 7.0-6.2) were performed using a suitable program. The fibres were stretched in relaxing solution until resting tension was just noticeable. When the calcium (pCa 6.0 or 6.2)-induced tension had reached steady state the test compound (final concentrations 0.1, 0.3, 1, 3,and 10 μM) was cumulatively added into the solution at 6 min intervals. All the experiments were carried out with fresh fibres at normal room temperature.

In another data set the test system is isolated heart. Put plainly: Effect in left ventricular pressure derivatives in isolated heart (Langendorff). As to conditions: isolated guinea-pig heart, constant pressure 50 mmHg, 37° C., read-out: EC50 on maximal positive derivative of the left ventricular systolic pressure. How it is done: Experiment 2. Effect in left ventricular pressure derivatives in isolated heart
After sacrification the heart of a guinea-pig was rapidly excised and rinsed in oxygenated perfusion buffer. A cannula was inserted into the aorta and secured with a ligature. Retrograde perfusion began as soon as the heart was placed in a thermostatically controlled moist chamber of the Langendorff apparatus (Hugo Sachs Elektronik, KG). Modified Tyrode solution (37° C.), equilibrated in a thermostatically controlled bulb oxygenator with carbogen (95% O2 and 5% CO2), was used as a perfusion buffer. The composition of the Tyrode solution was (in mM): NaCl 135; MgCl2×6H2O 1; KCl 5; CaCl2×2H2O 2; NaHCO3 15; Na2HPO4×2H2O 1; glucose 10; pH 7.3-7.4. The perfusion buffer was delivered at the top of the oxygenator by a pump and driven automatically by its controller. Subsequently, the buffer was delivered into the bulbs of the oxygenator chamber by a rotating disk. It was dispersed by making a thin fluid film on a large inner oxygenator surface in O2/CO2 atmosphere leading to saturation of the perfusate with oxygen (partial pressure 660 mmHg at 37° C.).
The experiments were carried out under constant pressure condition (50 mmHg). After a short prestabilization (10 min) a latex balloon (size 4) was carefully placed into the left ventricle through the left pulmonary vein and the left atrium. The latex balloon was attached to a stainless-steel cannula coupled with a pressure transducer. The latex balloon, the cannula and the chamber of the pressure transducer were carefully filled with ethylene glycol/water (1:1) mixture avoiding any air-bubble. The isovolumetric left ventricular pressure was recorded through the pressure transducer. At the beginning of the experiment, the volume of the balloon was adjusted to obtain a diastolic pressure of approximately 5 mmHg. Before starting the experiment the heart was allowed to stabilise further for 30-50 min. The systolic and end-diastolic left ventricular pressures were recorded for calculating the maximal positive and negative derivatives of the left ventricular pressure.

As a reminder, the EC50 is the concentration that produces a half-maximal response. The melting point is the temperature, or range, at which the solid turns liquid. With `CCCc1c(O)ccc(C=NNc2ccc(C3=NNC(=O)CC3C)cc2)c1O` (stereo not drawn) [Example 43, 6-{4-[N′-(2,4-Dihydroxy-3-propyl-benzylidene)-hydrazino]-phenyl}-5-methyl-4,5-dihydro-2H-pyridazin-3-one], the melting point lay in the range of 160 to 170 °C. Further, the Emax with skinned cardiac fiber is 39%. The EC50 with isolated heart (Cavia porcellus) came out at 1750 nM.

`CCc1c(O)ccc(C=NNc2ccc(C3=NNC(=O)CC3C)cc2)c1O` (stereo not drawn) [Example 40, 6-{4-[N′-(3-Ethyl-2,4-dihydroxy-benzylidene)-hydrazino]-phenyl}-5-methyl-4,5-dihydro-2H-pyridazin-3-one] gave a melting point of 238 to 240 °C. For the same compound, in the data set with skinned cardiac fiber, the Emax was found to be 100%. In the data set on isolated heart (Cavia porcellus), the concentration giving a half-maximal response (EC50) is 710 nM. The compound `Cc1cc(=O)n(C)nc1-c1ccc(NN=Cc2ccc(O)cc2O)cc1` [Example 24, 6-{4-[N′-(2,4-Dihydroxybenzylidene)hydrazino]phenyl}-2,5-dimethyl-2H-pyridazin-3-one] came in with a melting point of 266 to 269 °C. Moreover, the Emax in the data set with skinned cardiac fiber worked out at 42%. As to `CC(=NNc1ccc(C2=NNC(=O)CC2C)cc1)c1cc(O)ccc1O` (stereo not drawn) [Example 35, 6-(4-{N′-[1-(2,5-Dihydroxy-phenyl)-ethylidene]-hydrazino}-phenyl)-5-methyl-4,5-dihydro-2H-pyridazin-3-one], the melting point was in the range of 279 to 284 °C. Moreover, in the data set on skinned cardiac fiber, the Emax is 25.4%. Also, the EC50 with isolated heart (Cavia porcellus) stood at 310 nM. The like results for `CC(=NNc1ccc(C2=NNC(=O)CC2C)cc1)c1ccc(O)cc1O` (stereo not drawn) [Example 33, 6-(4-{N′-[1-(2,4-Dihydroxy-phenyl)-ethylidene]-hydrazino}-phenyl)-5-methyl-4,5-dihydro-2H-pyridazin-3-one] were, in that order, 259 to 261 °C, 55.2% and 400 nM. Regarding `CC1CC(=O)NN=C1c1ccc(NN=C(c2ccc(O)cc2O)c2ccc(O)cc2O)cc1` (stereo not drawn) [Example 34, 6-(4-{N′-[Bis-(2,4-dihydroxy-phenyl)-methylene]-hydrazino}-phenyl)-5-methyl-4,5-dihydro-2H-pyridazin-3-one], in the data set on skinned cardiac fiber, the Emax came out at 52.8%. For the same compound, the EC50 with isolated heart (Cavia porcellus) stood at 110 nM.

Regarding `CC(=O)Nc1ccc(C(C)=NNc2ccc(C3=NNC(=O)CC3C)cc2)cc1` (stereo not drawn) [Example 37, N-[4-(1-{[4-(4-Methyl-6-oxo-1,4,5,6-tetrahydro-pyridazin-3-yl)-phenyl]-hydrazono}-ethyl)-phenyl]-acetamide], the melting point lay in the range of 145 to 155 °C. Also, the Emax in the data set on skinned cardiac fiber is 21.7%.

For the compound `COc1c(O)ccc(C=NNc2ccc(C3=NNC(=O)C[C@H]3C)cc2)c1[N+](=O)[O-]` [Example 2, (R)-6-{4-[N′-(4-Hydroxy-3-methoxy-2-nitro-benzylidene)-hydrazino]-phenyl}-5-methyl-4,5-dihydro-2H-pyridazin-3-one], the Emax with skinned cardiac fiber turned out to be 207%. For the same compound, the EC50 in the data set on isolated heart (Cavia porcellus) worked out at 20 nM.

In turn, `CC1CC(=O)NN=C1c1ccc(NN=C(CCCC(=O)O)c2ccc(O)cc2O)cc1` (stereo not drawn) [Example 66, 5-(2,4-Dihydroxy-phenyl)-5-{[4-(4-methyl-6-oxo-1,4,5,6-tetrahydro-pyridazin-3-yl)-phenyl]-hydrazono}-pentanoic acid] registered a melting point of 235 to 240 °C. `Cc1cc(=O)[nH]nc1-c1ccc(NN=Cc2ccc(O)cc2O)cc1` [Example 21, 6-{4-[N′-(2,4-Dihydroxybenzylidene)hydrazino]phenyl}-5-methyl-2H-pyridazin-3-one] registered a melting point of 303 to 310 °C. Besides, the Emax with skinned cardiac fiber is 44.2%. The EC50 in the data set with isolated heart (Cavia porcellus) was 3040 nM. `CC1CC(=O)NN=C1c1ccc(C(=NN)c2ccccc2C(=O)O)cc1` (stereo not drawn) [Example 10, 2-{[4-(4-Methyl-6-oxo-1,4,5,6-tetrahydro-pyridazin-3-yl)-phenyl]-hydrazonomethyl}-benzoic acid] gave a melting point of 250 to 251 °C.

`CC(=NNc1ccc(C2=NNC(=O)CC2C)cc1)c1ccc(O)c(C)c1O` (stereo not drawn) [Example 38, 6-(4-{N′-[1-(2,4-Dihydroxy-3-methyl-phenyl)-ethylidene]-hydrazino}-phenyl)-5-methyl-4,5-dihydro-2H-pyridazin-3-one]: the melting point lay in the range of 244 to 248 °C. Also, the Emax in the data set with skinned cardiac fiber turned out to be 32.2%.

As for `CC1CC(=O)NN=C1c1ccc(NN=Cc2ccc([N+](=O)[O-])cc2[N+](=O)[O-])cc1` (stereo not drawn), the melting point was 278 to 280 °C. Compound `CC1CC(=O)NN=C1c1ccc(NN=Cc2c([N+](=O)[O-])cccc2[N+](=O)[O-])cc1` (stereo not drawn) registered a melting point of 216 to 218 °C. In turn, `CC(=O)Nc1ccc(C(=NN)c2ccc(C3=NNC(=O)CC3C)cc2)c(O)c1` (stereo not drawn) [Example 41, N-(3-Hydroxy-4-{[4-(4-methyl-6-oxo-1,4,5,6-tetrahydro-pyridazin-3-yl)-phenyl]-hydrazonomethyl}-phenyl)-acetamide] had a melting point of 269 to 275 °C. For the compound `CC(=NNc1ccc(-c2n[nH]c(=O)cc2C)cc1)c1ccc(O)cc1O` [Example 23, 6-{4-{N′-[1-(2,4-Dihydroxyphenyl)ethylidene]hydrazino}phenyl}-5-methyl-2H-pyridazin-3-one], the Emax in the data set with skinned cardiac fiber amounted to 39.9%. The EC50 in the data set on isolated heart (Cavia porcellus) is 2470 nM. `COc1c(O)ccc(C=NNc2ccc(-c3n[nH]c(=O)cc3C)cc2)c1[N+](=O)[O-]` [Example 22, 6-{4-[N′-(4-Hydroxy-3-methoxy-2-nitrobenzylidene)hydrazino]phenyl}-5-methyl-2H-pyridazin-3-one] displayed a melting point of 264 to 268 °C. Same read-out and setting: for `O=c1[nH]nc(-c2ccc(NN=C(c3ccc(O)cc3O)c3ccc(O)cc3O)cc2)c2ccccc12` [Example 17, 4-(4-{N′-[Bis-(2,4-dihydroxy-phenyl)-methylene]-hydrazino}-phenyl)-2H-phthalazin-1-one] the value was 140 to 146 °C. In turn, `COc1c(O)ccc(C=NNc2ccc(C3=NNC(=O)CC3C)cc2)c1[N+](=O)[O-]` (stereo not drawn) [Example 6, 6-{4-[N′-(4-Hydroxy-3-methoxy-2-nitro-benzylidene)-hydrazino]-phenyl}-5-methyl-4,5-dihydro-2H-pyridazin-3-one] displayed a melting point of 235 to 239 °C. For the same compound, the Emax in the data set on skinned cardiac fiber was found to be 32.9%. The EC50 with isolated heart (Cavia porcellus) came out at 310 nM. On to `CC(=NNc1ccc(C2=NNC(=O)CC2C)cc1)c1ccc(O)c(C)c1O` (stereo not drawn) [Example 49, 6-(4-{N-[1-(2,4-Dihydroxy-3-methylphenyl)ethylidene]hydrazino}phenyl)-5-methyl-4,5-dihydro-2H-pyridazin-3-one], for which the “Change in force/ % change from control (maximum calcium sensitizing effect in skinned fiber)” value in the data set with skinned cardiac fiber is recorded as 28.7 % change from control. Also, the EC50 in the data set on isolated heart came out at 250 nM.
